Assay results: article PMC11541572, “Nucleotidyltransferase toxin MenT extends aminoacyl acceptor ends of serine tRNAs to control Mycobacterium tuberculosis growth” (Nature Communications, 2024)

How the values were obtained:
PcnA = PcnA (Mycobacterium tuberculosis, UniProt L7N672)
MenT1 = molecular target: T1, MenT1 (Mycobacterium tuberculosis, UniProt L7N686)
T1 construct: gene Rv0078A

MenT3 = molecular target: T2, MenT3 (Mycobacterium tuberculosis, UniProt P96356)
T2 construct: gene Rv1045
T2 sequence (P96356 1-293): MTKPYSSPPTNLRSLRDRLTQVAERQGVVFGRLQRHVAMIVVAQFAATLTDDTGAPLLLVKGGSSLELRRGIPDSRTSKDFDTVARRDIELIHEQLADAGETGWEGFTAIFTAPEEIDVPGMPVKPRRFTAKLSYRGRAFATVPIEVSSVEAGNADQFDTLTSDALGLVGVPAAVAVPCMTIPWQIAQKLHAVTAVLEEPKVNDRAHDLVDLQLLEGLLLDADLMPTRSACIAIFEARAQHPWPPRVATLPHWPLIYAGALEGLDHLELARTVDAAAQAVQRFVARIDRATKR

T1 sequence (L7N686 1-197): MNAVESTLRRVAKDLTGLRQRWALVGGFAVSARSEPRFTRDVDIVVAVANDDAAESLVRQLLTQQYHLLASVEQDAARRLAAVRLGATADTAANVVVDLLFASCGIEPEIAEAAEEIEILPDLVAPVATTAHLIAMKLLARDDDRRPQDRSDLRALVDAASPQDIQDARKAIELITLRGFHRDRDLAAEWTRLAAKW
Sequence of PcnA (L7N672 entry or part of it): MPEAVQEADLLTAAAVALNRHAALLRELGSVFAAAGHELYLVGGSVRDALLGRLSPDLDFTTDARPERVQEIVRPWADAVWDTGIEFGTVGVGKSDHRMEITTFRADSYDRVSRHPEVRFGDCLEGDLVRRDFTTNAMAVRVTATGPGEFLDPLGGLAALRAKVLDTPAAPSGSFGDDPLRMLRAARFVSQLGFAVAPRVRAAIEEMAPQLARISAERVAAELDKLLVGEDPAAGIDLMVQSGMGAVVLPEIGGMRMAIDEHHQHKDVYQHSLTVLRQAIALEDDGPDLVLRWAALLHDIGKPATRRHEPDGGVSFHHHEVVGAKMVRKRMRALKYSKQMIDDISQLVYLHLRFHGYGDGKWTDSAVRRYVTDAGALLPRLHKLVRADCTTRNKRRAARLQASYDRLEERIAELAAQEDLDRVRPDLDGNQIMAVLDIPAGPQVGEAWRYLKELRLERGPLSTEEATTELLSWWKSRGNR

| SMILES | pyrophosphorolysis of labelled tRNA, urea-PAGE autoradiography (PcnA) | transfer of alpha-32P nucleotide to tRNA, urea-PAGE autoradiography (MenT1) | transfer of alpha-32P nucleotide to tRNA, urea-PAGE autoradiography (MenT3) |
| --- | --- | --- | --- |
| O=P(O)(O)OP(=O)(O)O [inorganic pyrophosphate] | PcnA is indeed capable of generating truncated tRNA^Ser-4ΔA and ΔCA from MenT3-modified tRNA | – | – |
| Nc1ccn([C@@H]2O[C@H](COP(=O)(O)OP(=O)(O)OP(=O)(O)O)[C@@H](O)[C@H]2O)c(=O)n1 [CTP] | – | in the presence of α-32P labeled CTP for MenT1 and MenT3 | CTP is by far the preferred nucleotide substrate of MenT3 in vitro |
